Assay results: article PMC2442904 (British Journal of Pharmacology, 2008)

Biological target: thioredoxin-1 (Trx) (Homo sapiens, UniProt P10599)
Test: insulin reduction assay with pure human Trx preincubated with PMX464
Assay type: biochemical

thioredoxin-1 (Trx), sequence (P10599 2-105): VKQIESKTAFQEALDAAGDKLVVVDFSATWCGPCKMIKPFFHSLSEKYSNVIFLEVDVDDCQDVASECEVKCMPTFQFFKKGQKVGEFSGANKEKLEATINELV

IC50: 20 µM
Compound: O=C1C=CC(O)(c2nc3ccccc3s2)C=C1 [PMX464, 4-(benzothiazol-2-yl)-4-hydroxycyclohexa-2,5-dien-1-one hydrate]
